Toxic doses and inconclusive results are not listed. No stated cut-off is given here; in the data, active means T/C of 150% or more; inactive means T/C below 125%.
Test system: L1210 leukemia ip in BDF1 mice, survival T/C
Assay: NCI In Vivo Anticancer Drug Screen. Data for tumor model L1210 Leukemia (intraperitoneal) in B6D2F1 (BDF1) mice
Conditions: endpoint: mean survival time, higher = longer survival
Summary of the method: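 Value reflects the ratio of survival in compound-treated mice to survival in vehicle-treated controls, with both groups carrying the same transplanted tumor.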

[1] = dose: 100.0 mg/kg/injection, schedule: Q01DX009 (ip), vehicle: Klucel (hydroxypropylcellulose) (HPC)
[2] = dose: 200.0 mg/kg/injection, schedule: Q01DX009 (ip), vehicle: Klucel (hydroxypropylcellulose) (HPC)
[3] = dose: 400.0 mg/kg/injection, schedule: Q01DX009 (ip), vehicle: Klucel (hydroxypropylcellulose) (HPC)
[4] = dose: 75.0 mg/kg/injection, schedule: Q01DX001 (ip), vehicle: saline
[5] = dose: 150.0 mg/kg/injection, schedule: Q01DX001 (ip), vehicle: saline
[6] = dose: 100.0 mg/kg/injection, schedule: Q01DX001 (ip), vehicle: saline
[7] = dose: 200.0 mg/kg/injection, schedule: Q01DX001 (ip), vehicle: saline
[8] = dose: 400.0 mg/kg/injection, schedule: Q01DX001 (ip), vehicle: saline
[9] = dose: 100.0 mg/kg/injection, schedule: Q04DX003 (ip), vehicle: Klucel (hydroxypropylcellulose) (HPC)
[10] = dose: 100.0 mg/kg/injection, schedule: Q04DX003 (ip), vehicle: saline
[11] = dose: 200.0 mg/kg/injection, schedule: Q04DX003 (ip), vehicle: saline
[12] = dose: 400.0 mg/kg/injection, schedule: Q04DX003 (ip), vehicle: saline
[13] = dose: 100.0 mg/kg/injection, schedule: Q04DX003 (ip), vehicle: acetone
[14] = dose: 100.0 mg/kg/injection, schedule: Q01DX009 (ip), vehicle: saline with Tween-80
[15] = dose: 200.0 mg/kg/injection, schedule: Q01DX009 (ip), vehicle: saline with Tween-80
[16] = dose: 400.0 mg/kg/injection, schedule: Q01DX009 (ip), vehicle: saline with Tween-80
[17] = dose: 50.0 mg/kg/injection, schedule: Q01DX009 (ip), vehicle: Klucel (hydroxypropylcellulose) (HPC)

Measured: T/C

C=CCNC(=S)Nc1ccc(OC(=O)NC(C)(C)C)cc1
inactive: [1] 94 % of control | [2] 95 % of control | [3] 89 % of control

O=C(O)c1cc(C(F)(F)F)nc2c1ccc1ccccc12
inactive: [4] 98 % of control | [5] 98 % of control

CC[C@H](c1ccc(O)cc1)[C@@H](CC)c1ccc(O)cc1
inactive: dose: 62.5 mg/kg/injection, schedule: Q01DX010 (sc), vehicle: steriod suspending solution 104 % of control | dose: 125.0 mg/kg/injection, schedule: Q01DX010 (sc), vehicle: steriod suspending solution 95 % of control | dose: 250.0 mg/kg/injection, schedule: Q01DX010 (sc), vehicle: steriod suspending solution 104 % of control

O=C(O)c1ccc2c(c1Sc1ccccc1)C(=O)c1ccccc1C2=O
inactive: [4] 104 % of control | [5] 107 % of control | dose: 300.0 mg/kg/injection, schedule: Q01DX001 (ip), vehicle: saline 91 % of control

Cc1ccc(N=NN(C)N=Nc2ccc(C)cc2)cc1
inactive: dose: 50.0 mg/kg/injection, schedule: Q01DX001 (ip), vehicle: saline 98 % of control | [6] 95 % of control | [7] 95 % of control | [8] 93 % of control

CCCCCCCCCCCCCC(S(=O)(=O)CC)S(=O)(=O)CC
inactive: dose: 100.0 mg/kg/injection, schedule: Q01DX001 (ip), vehicle: Klucel (hydroxypropylcellulose) (HPC) 89 % of control | dose: 200.0 mg/kg/injection, schedule: Q01DX001 (ip), vehicle: Klucel (hydroxypropylcellulose) (HPC) 87 % of control | dose: 400.0 mg/kg/injection, schedule: Q01DX001 (ip), vehicle: Klucel (hydroxypropylcellulose) (HPC) 87 % of control

O=c1cc(Nc2ccc(Cl)cc2)[nH]c(=O)[nH]1
inactive: dose: 100.0 mg/kg/injection, schedule: Q01DX001 (ip), vehicle: gum acacia 101 % of control | dose: 400.0 mg/kg/injection, schedule: Q01DX001 (ip), vehicle: gum acacia 101 % of control

O=S(OCCCl)OCCCl
inactive: dose: 75.0 mg/kg/injection, schedule: Q04DX003 (ip), vehicle: Klucel (hydroxypropylcellulose) (HPC) 91 % of control | dose: 150.0 mg/kg/injection, schedule: Q04DX003 (ip), vehicle: Klucel (hydroxypropylcellulose) (HPC) 102 % of control | dose: 300.0 mg/kg/injection, schedule: Q04DX003 (ip), vehicle: Klucel (hydroxypropylcellulose) (HPC) 98 % of control

COc1cc([N+](=O)[O-])ccc1C#N
inactive: [9] 113 % of control | dose: 400.0 mg/kg/injection, schedule: Q04DX003 (ip), vehicle: Klucel (hydroxypropylcellulose) (HPC) 96 % of control

CC12CCC(C)(O)C(CC3=C1CCc1ccccc13)C2=O (stereo not given)
inactive: [10] 107 % of control | [11] 104 % of control | [12] 106 % of control

NC(=O)N/N=C1\CCCCC12CCCCC2
inactive: [13] 95 % of control | dose: 200.0 mg/kg/injection, schedule: Q04DX003 (ip), vehicle: acetone 103 % of control | dose: 400.0 mg/kg/injection, schedule: Q04DX003 (ip), vehicle: acetone 97 % of control

NC1=NC(=O)CS1
inactive: dose: 100.0 mg/kg/injection, schedule: Q01DX001 (ip), vehicle: saline with Tween-80 92 % of control | [14] 105 % of control | [10] 86 % of control | dose: 200.0 mg/kg/injection, schedule: Q01DX001 (ip), vehicle: saline with Tween-80 103 % of control | [15] 107 % of control | [11] 93 % of control | dose: 400.0 mg/kg/injection, schedule: Q01DX001 (ip), vehicle: saline with Tween-80 95 % of control | [16] 105 % of control | [12] 86 % of control

O=C(O)CNc1nc(Cl)nc(NCC(=O)O)n1
inactive: [17] 106 % of control | [1] 89 % of control

Cc1cc(/C=C/c2ccc(N(CCCl)CCCl)cc2)nc2ccccc12
inactive: [6] 107 % of control | [7] 113 % of control | [8] 103 % of control

O=C(COc1c(Cl)cc(Cl)cc1Cl)NCc1ccc(Cl)cc1
inactive: [14] 100 % of control | [15] 109 % of control | [16] 101 % of control

Cc1ccc(NC(=O)OCCN(CCOC(=O)Nc2ccc(C)cc2)Cc2ccccc2)cc1
inactive: [6] 94 % of control | [7] 91 % of control | [8] 94 % of control

COC(=O)C1CNc2ccccc2C1=O (stereo not given)
inactive: dose: 50.0 mg/kg/injection, schedule: Q01DX001 (ip), vehicle: carboxymethylcellulose (CMC) 97 % of control | dose: 100.0 mg/kg/injection, schedule: Q01DX001 (ip), vehicle: carboxymethylcellulose (CMC) 92 % of control | dose: 200.0 mg/kg/injection, schedule: Q01DX001 (ip), vehicle: carboxymethylcellulose (CMC) 97 % of control | dose: 400.0 mg/kg/injection, schedule: Q01DX001 (ip), vehicle: carboxymethylcellulose (CMC) 92 % of control

COc1ccc(N=C=Nc2ccc(OC)cc2)cc1
inactive: dose: 12.0 mg/kg/injection, schedule: Q01DX009 (ip), vehicle: Klucel (hydroxypropylcellulose) (HPC) 101 % of control | dose: 25.0 mg/kg/injection, schedule: Q01DX009 (ip), vehicle: Klucel (hydroxypropylcellulose) (HPC) 108 % of control | dose: 25.0 mg/kg/injection, schedule: Q04DX003 (ip), vehicle: Klucel (hydroxypropylcellulose) (HPC) 96 % of control | [17] 90 % of control | dose: 50.0 mg/kg/injection, schedule: Q04DX003 (ip), vehicle: Klucel (hydroxypropylcellulose) (HPC) 93 % of control | [9] 98 % of control

CC(=O)OI(OC(C)=O)c1ccc(-c2ccccc2)cc1
inactive: [1] 91 % of control | [2] 102 % of control

CN1C(C)(C)CC(O)(C(O)(c2ccccc2)c2ccccc2)CC1(C)C
inactive: [13] 98 % of control

O=C(COCC(=O)N/N=C/c1c(O)ccc2ccccc12)N/N=C/c1c(O)ccc2ccccc12
inactive: [1] 98 % of control | [2] 89 % of control | [3] 95 % of control

CC(=O)Nc1c(Cl)cc(-c2ccc(F)cc2)cc1Cl
inactive: dose: 15.0 mg/kg/injection, schedule: Q01DX001 (ip), vehicle: carboxymethylcellulose (CMC) 96 % of control | dose: 30.0 mg/kg/injection, schedule: Q01DX001 (ip), vehicle: carboxymethylcellulose (CMC) 94 % of control | dose: 60.0 mg/kg/injection, schedule: Q01DX001 (ip), vehicle: carboxymethylcellulose (CMC) 98 % of control
